Assay results taken from US20240261267A1, “METHODS FOR TREATING MULTIPLE SCLEROSIS” (Vanda Pharmaceuticals Inc., priority 2021, published 2024).

How the values were obtained:
[1] = system: adult subjects with relapsing MS; assay: Phase III OPTIMUM study, safety and treatment discontinuation
Description: A prospective, multicenter, randomized, double-blind, active controlled, parallel-group, phase III, superiority study (Phase III OPTIMUM study) was conducted.
Subjects had active disease evidenced by one or more MS attacks with onset within the period of 12 to 1 months prior to baseline EDSS assessment, or by two or more MS attacks with onset within the 24 to 1 months prior to baseline EDSS assessment, or with one or more gadolinium-enhancing (Gd+) lesion(s) of the brain on an MRI performed within 6 months prior to baseline EDSS assessment. Enrolled subjects were ambulatory with an EDSS score of up to 5.5 inclusive. The subjects were treatment-naïve (i.e., no MS disease-modifying therapy received at any time in the past) or previously treated with interferon (IFN) β-1a, IFN β-1b, glatiramer acetate, dimethyl fumarate, or natalizumab.
The treatment period consisted of an up-titration period (from Day 1 to 14) and a maintenance period (Day 15 until EOT).
To reduce the first-dose effect of ponesimod, an up-titration scheme was implemented from Day 1 to Day 14: • Days 1 and 2; 2 mg. • Days 3 and 4; 3 mg. • Days 5 and 6; 4 mg. • Day 7; 5 mg. • Day 8; 6 mg. • Day 9; 7 mg. • Day 10; 8 mg. • Day 11; 9 mg. • Days 12, 13, and 14; 10 mg. • Day 15 until EOT; 20 mg.
The Safety Set (SAF) included all randomized subjects who received at least one dose of study treatment. Subjects were analyzed based on actual treatment taken, not randomized treatment.

[2] = comparison given in brackets; cited from earlier work
primary mouse OPCs = assay: agarose drop migration assay; assay type: cell-based; settings: 3000 nM; after 5 days; normalized to 0.1% DMSO
Description: The effects of ponesimod, a selective S1P1 receptor agonist, and A971432, a selective S1P5 receptor agonist, on oligodendrocyte precursor cell (OPC) migration and differentiation were evaluated. Nine concentrations were tested (logarithmic dilutions ranging from 0.3 nM to 3000 nM, n=6 per concentration). Fingolimod phosphate (P-FTY720, 3000 nM, n=6) was included as a positive control, 0.1% DMSO was included (min.one/plate) as a negative control. Primary mouse OPCs were harvested on postnatal day 0 or 1 and mixed glia cultures were maintained for 14 days. Primary OPCs were then purified using the shake-off method, and used for either a migration assay, or a differentiation assay, as detailed below. To harvest primary mouse OPCs, cortices are isolated from mouse pups on postnatal day 0 or 1 and placed in ice-cold Dulbecco's Modified Eagle Medium (DMEM) (Sigma Aldrich, Overijse, BE). The cortices are homogenized and centrifuged for 5 minutes at 300 G. The supernatant is removed, and a papain solution is added for 30 minutes (125 uL DMEM solution per brain containing 20 units/ml papain and 40 μg/ml DNase, at 37 degrees). Digestion is inactivated by adding 9 ml cold DMEM. The solution is then centrifuged for 5 minutes at […]. The supernatant is carefully removed, and the pellet is resuspended in 2-5 ml culture medium (DMEM with 10% fetal calf serum (Biowest, Nuaillé, FR) and 1% pen/strep (Sigma Aldrich, Overijse, BE)). […] Cell suspension is divided over PLL (Sigma Aldrich, Overijse, BE)-coated flasks (2 brains per flask) and DMEM is added to a final volume of 10 ml. DMEM is replaced on day 4, 7, and 11. On day 7 and 11, insulin (Sigma Aldrich, Overijse, BE) is added to the medium (5μg/ml). On day 14, OPCs are separated from astrocytes by the shake-off method: flasks are placed on a shaker for 45 minutes at 75 rpm (37 degrees). […] The extent of cell migration is then measured after 5 days using Incucyte imaging analysis and fluorescent endpoint staining. For each well, the 15-20 cells that migrated the furthest away from the agarose drop are measured and averaged. […]

[3] = Safety Set, ponesimod 20 mg, teriflunomide 14 mg
[4] = ponesimod 20 mg, teriflunomide 14 mg

## C/C(O)=C(\C#N)C(=O)Nc1ccc(C(F)(F)F)cc1 [teriflunomide]
[1]; Day 1, all with pre-treatment HR<55 bpm
  subjects with asymptomatic post-dose HR≤40 bpm: none
[1]; [3]
  AEs leading to premature discontinuation of study drug, SOC Eye disorders: 0 n
  AEs leading to premature discontinuation of study drug, SOC Respiratory, thoracic and mediastinal disorders: 0 n
  AEs leading to premature discontinuation of study drug, SOC Vascular disorders: 0 n
  Subject with at least one AE leading to study drug discontinuation: 6.0%
  Subject with at least one Serious AE: 8.1%
  Subject with at least one treatment-emergent AE: 88.2%
  Treatment-emergent AESI: Hepatobiliary disorders/Liver enzyme abnormality: 14.5%
  Treatment-emergent AESI: Hypertension: 9.0%
  Treatment-emergent AESI: Pulmonary events: 2.7%
[1]; at 2-hours post dose, Day 1
  mean heart rate reduction compared to pre-dose: −1.7 bpm
[1]; on Day 1, Safety Set
  AESI heart rate and rhythm: Atrioventricular block first degree: 0 n
  AESI heart rate and rhythm: Bradycardia: 0 n
  AESI heart rate and rhythm: Bundle branch block left: 0 n
  AESI heart rate and rhythm: Bundle branch block right: 0 n
  AESI heart rate and rhythm: Defect conduction intraventricular: 0 n
  AESI heart rate and rhythm: Sinus arrhythmia: 0 n
  AESI heart rate and rhythm: Sinus bradycardia: 0 n
[1]; on Day 1, Safety Set, ponesimod arm (2 mg on Day 1), teriflunomide 14 mg
  AESI effect on heart rate and rhythm (including hypotension): Subjects with at least one AE: 0.4%
[1]; [4]
  TEAE ALT increased: 9.4%
  TEAE headache: 12.7%
  TEAE nasopharyngitis: 16.8%
  TEAE upper respiratory tract infection: 10.4%
  proportion of subjects who experienced ALT increase>3×ULN: 8.3%
  proportion of subjects who experienced ALT increase>8×ULN: 2.1%
  subjects discontinued due to AEs or tolerability related reasons: 2.5%

## CCCCCCCCc1ccc(CCC(N)(CO)CO)cc1 [fingolimod]
[2]
  ECG HR effect: nadir: ~6 h

## fingolimod phosphate
Primary mouse OPCs
  migration distance: significantly decreased migration distance

## CCc1cc(/C(C)=N/OCc2ccc(C3CCCCC3)c(C(F)(F)F)c2)ccc1CN1CC(C(=O)O)C1 [siponimod]
[2]
  ECG HR effect: nadir: 3 to 4 h
